Test results taken from patent publication US20230364052A1, “COMPOSITION AND METHOD FOR TREATING AUTISM” (ZELIRA THERAPEUTICS OPERATIONS PTY LTD, priority 2017, published 2023).

What follows are compounds tested on patients with ASD diagnosis according to DSM-5 (assay: Retrospective review of ASD patients treated with Cannabis extracts; clinical response by CGI-I Scale). Settings: 66.6% of the ASD patients, treated before Cannabis therapy.
Type: in vivo
Procedure: A retrospective review of patients seen between June 2016 and March 2017 with ASD diagnosis according to DSM-5 (persistent deficits in social communication and interaction; restricted, repetitive patterns of behaviour, interests, or activities; symptoms present in the early developmental period; cause clinically significant impairment in social, occupational, or other areas of current functioning; not explained by intellectual disability nor global developmental delay) who were treated with Cannabis extracts for at least a 12-week period was completed. Demographic/clinical data, neuroimaging/EEG studies, vision, audition, genetic, and metabolic tests, parental/school/neuropsychological reports were reviewed.
The patients were administered with the cannabinoids sublingually (sublingual drops or “rice grain” method—see Example 1) twice daily (BID) for the duration of their treatment. The Cannabis extracts were obtained from the Moby Dick, Sharck, Durga mata or Nebula strains of Cannabis. For 10 out of the 21 patients included in the study, the total daily dosage of CBD and THC (measured by HPLC) and CBD:THC ratio were calculated and discussed further below.
The initial severity of symptoms presenting in the patients was assessed according to the criteria provided in the DSM-5, and are shown in FIG. 3.
The selected patients consisted of twenty (20) children and 1 adult (Mean age: 9 years, 10 month (range: 26 mo-22 yo), 15 males).
Mean follow-up after starting Cannabis therapy was 7.6 mo (range: 3-12 months). According to Cannabis strain, 71.5% of patients received balanced CBD:THC extracts; 19.0% high-CBD (e.g. Table 3; Formulations 1-3), and 9.5% high-THC extracts (e.g. Table 3; Formulation 6). The administered daily dose of CBD and THC was measured in 10 patients; 9 of them received […] and one high-THC extracts (Tables 2 and 3).
For `OCCOCCN1CCN(C2=Nc3ccccc3Sc3ccccc32)CC1` [quetiapine], the “response to previous treatment” value was “without good response and/or with undesirable adverse events”. In the case of `O=C1CCc2ccc(OCCCCN3CCN(c4cccc(Cl)c4Cl)CC3)cc2N1` [aripiprazole], the “response to previous treatment” value was “without good response and/or with undesirable adverse events”. For `Cc1nc2n(c(=O)c1CCN1CCC(c3noc4cc(F)ccc34)CC1)CCCC2` [risperidone], the “response to previous treatment” value was “without good response and/or with undesirable adverse events”. `COC(=O)C(c1ccccc1)C1CCCCN1` (stereo not shown) [methylphenidate] was tested, and the “response to previous treatment” value was “without good response and/or with undesirable adverse events”.
